Experimental data reported in patent publication US10768179B2, “Method for predicting responsiveness to cancer treatment using p300-inhibiting compound” (National Cancer Center, priority 2014, dated 2020).

Assays:
[1] = tested on: CBP-mutated lung cancer cells and lymphoma cells; assay: Sensitivity (survival rate, IC50) of cancer cell lines to p300 inhibitor C646; assay type: cell-based
Method: A549, H1299, H157, SQ5, H1703, LK2, H520 (NSCLC), RL, Loucy, RC-K8, U2932, Ramos, Farage, SUP-T1, WSU-NHL, VAL, SUDHL5, Jurkat, TE8, and TE10 were separately cultured in RPMI-1640 or DMEM supplemented with 10% fetal bovine serum (FBS). MRC-5 cells (normal fibroblasts), HEK293T cells (immortalized renal epithelial cells), and RPE-1 cells (immortalized retinal epithelial cells) were separately cultured in DMEM supplemented with 10% FBS.
The viability was determined by examining intracellular ATP level using CellTiter-Glo Luminescent Cell Viability Assay kit (Promega Corp.). Each cancer cell line was transfected with siRNA (50 nM) using Lipofectamine RNAiMAX (Invitrogen Corp.). Two days later, the cells were trypsinized, counted, and reseeded in specified numbers in 96-well plate. In order to measure the cell viability, CellTiter-Glo Luminescent Cell Viability Assay kit (Promega Corp.) was added to the cells, and […] was measured using Envision (PerkinElmer, Inc.).

CBP-mutated cancer cells = assay: Apoptosis analysis by Annexin V/PI staining after C646 treatment; assay type: cell-based; settings: 48 hours and 96 hours after C646 treatment; FIG. 5B
Method: In order to detect apoptotic cells by flow cytometry, Annexin V-FITC/PI apoptosis detection kit (F. Hoffmann-La Roche, Ltd.) was used according to the manufacturer's instruction manual. Briefly, the cell pellet was suspended in a 1× binding buffer and incubated with Annexin V-FITC and PI for 20 minutes in the dark. Subsequently, the fluorescence of the cells was analyzed by flow cytometry.

SMILES: CC1=NN(c2ccc(C(=O)O)cc2)C(=O)/C1=C\c1ccc(-c2cc(C)c(C)cc2[N+](=O)[O-])o1 [C646]
- IC50 value for C646 ([1]; CBP-mutated vs CBP-proficient cancer cells, Student's t test, p<0.01, FIGS. 3B and 3D): low tendency relative to CBP-proficient cancer cells
- sensitivity to C646 (survival rates) ([1]; CBP-mutated vs CBP-proficient lung cancer and lymphoma cell lines, FIGS. 3A and 3C): higher sensitivity of the CBP-mutated cancer cells to C646 than that of the CBP-proficient cancer cells
- induction of apoptosis (Annexin V stainability) (CBP-mutated cancer cells): specifically suppresses the growth of CBP-mutated cancer cells by inducing apoptosis
